SMILES strings stand for the structures. pIC50: −log10 of the molar value.

The target in the test is T1, Broad substrate specificity ATP-binding cassette transporter ABCG2 (Homo sapiens, UniProt Q9UNQ0).
T1 sequence (Q9UNQ0 whole entry): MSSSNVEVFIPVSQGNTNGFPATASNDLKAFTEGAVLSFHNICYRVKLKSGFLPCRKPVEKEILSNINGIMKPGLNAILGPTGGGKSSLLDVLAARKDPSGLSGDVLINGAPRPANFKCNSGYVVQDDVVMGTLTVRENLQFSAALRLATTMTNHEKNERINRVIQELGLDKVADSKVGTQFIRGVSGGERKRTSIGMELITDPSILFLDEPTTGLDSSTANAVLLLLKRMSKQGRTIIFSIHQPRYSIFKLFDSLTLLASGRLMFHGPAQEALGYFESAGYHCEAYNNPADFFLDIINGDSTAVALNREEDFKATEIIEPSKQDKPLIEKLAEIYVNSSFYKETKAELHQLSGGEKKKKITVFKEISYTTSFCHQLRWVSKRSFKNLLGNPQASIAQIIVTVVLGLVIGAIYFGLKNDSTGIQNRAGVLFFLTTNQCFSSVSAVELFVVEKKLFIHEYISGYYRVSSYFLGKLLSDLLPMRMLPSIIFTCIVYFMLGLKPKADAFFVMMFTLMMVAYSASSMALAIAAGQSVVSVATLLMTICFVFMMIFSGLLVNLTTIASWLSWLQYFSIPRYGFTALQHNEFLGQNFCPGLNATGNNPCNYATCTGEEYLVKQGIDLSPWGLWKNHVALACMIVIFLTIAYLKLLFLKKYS
Nature of the test: Screening Assay for ABCG2 Inhibitors. The following applies: pH 7.4; 37 °C. On the procedure: IC50 and maximal activities for inhibition of PhA accumulation were determined from dose-response curves. The accumulation of PhA, a fluorescent ABCG2 substrate, formed the basis of the assay for inhibitors of ABCG2 activity. NCI-H460/MX20 cells were transferred to black-walled, clear-bottomed 384-well polylysine-coated assay plates (Corning) and allowed to attach for several hours. PhA was added, immediately followed by compounds or vehicle (DMSO/PBS) control and incubated for an additional 18 h. After removal of medium and washing with PBS containing Ca2+ and Mg2+, fluorescence intensity was read on a Tecan Safire fluorescence plate reader in bottom read mode (395 nm excitation, 670 nm emission). Each plate had control wells containing Fumitremorgin C (FTC). Data were normalized to FTC and reported as the percentage of FTC fluorescence. Apparent IC50 values were calculated from dose-response data using SigmaPlot (SPSS, Inc., Chicago) 4-parameter logistic nonlinear regression analysis.
Regarding `CO/C(=C/c1ccc(O)cc1)C(=O)N/C=C/c1cc(Br)c(OC)c(Br)c1` [Botryllamide B, 2], the pIC50 was 4.95.

`CO/C(=C/c1ccc(O)cc1)C(=O)N/C=C/c1ccc(OC)c(Br)c1` [Botryllamide D, 4] showed a pIC50 of 4.79.

With `CO/C(=C/c1ccc(O)cc1)C(=O)N/C=C/c1ccc(OC)cc1` [Botryllamide I, 9], the negative logarithm of the IC50 (pIC50) was 4.38.

Take `COc1ccc2c3c([nH]c2c1)[C@H](C=C(C)C)N1C(=O)[C@@H]2CCCN2C(=O)[C@@H]1C3` [Fumitremorgin C]: the pIC50 is 6.10.

For `CO/C(=C\c1ccc(O)cc1)C(=O)N/C=C/c1cc(Br)c(OC)c(Br)c1` [US8470888, Botryllamide A], the pIC50 was 4.48.

Turning to `CO/C(=C\c1ccc(O)cc1)C(=O)N/C=C/c1ccc(O)cc1` [US8470888, Botryllamide F], the pIC50 was 4.78.

As for `CO/C(=C\c1ccc(O)cc1)C(=O)N/C=C/c1cc(Br)c(O)c(Br)c1` [US8470888, Botryllamide G], the negative-log IC50 (pIC50) is 5.16.

In the case of `CO/C(=C\c1ccc(O)cc1)C(=O)N/C=C/c1ccc(OC)cc1` [US8470888, Botryllamide I], the pIC50 is 4.63.

As usually defined, the pIC50 is the negative decadic logarithm of the IC50, by convention in mol/L. The low end stands for a high IC50, the high end for a low IC50.

The values are drawn from BindingDB's records for doi:10.1021/cb900134c (Saic-Frederick, 2009).
